Results as given in patent publication US9982152B2, “Active energy ray curable composition, cured product, composition storage container, two-dimensional or three-dimensional image forming apparatus, and two-dimensional or three-dimensional image forming method” (Ricoh Company, Ltd., priority 2016, dated 2018).
Where two headings read alike, the source gives them in different places.

Assays:
[1] = data source SDS, GHS hazard category for skin sensitizers or negative in a skin sensitization test, cited from earlier work
[2] = LLNA (Local Lymph Node Assay), SI (Stimulus Index); format: in vivo; settings: for Skin Sensitization Potential: judged from SI by LLNA; for SI (by LLNA): measured according to method of JP-2012-140593-A
Excerpt: In the present disclosure, compounds having skin sensitization potential refer to those determined to be positive in a skin sensitization test. Hereinafter, such compounds may also be referred to as “skin-sensitizing compounds” or “skin sensitizers”. The skin sensitization test is not limited to a specific test. As an example of the skin sensitization test, LLNA (Local Lymph Node Assay) is known that evaluates the degree of sensitization potential by SI (Stimulus Index). SI of 3 or more is determined to be positive.
Skin sensitization information described in Table 1 was obtained from SDSs available in Japan or other countries. SI (determined by LLNA) values described in Table 1 were measured according to a method described in JP-2012-140593-A.

Compound: C=CC(=O)NCCO [(A-2), N-(2-Hydroxyethyl)acrylamide]
- Skin Sensitization Potential [1]: Negative
- Skin Sensitization Potential ([1]; listed as HEAA): negative

Compound: C=C(C)C(=O)OCC(C)(C)COC(=O)C(=C)C [(A-5), Neopentyl glycol dimethacrylate]
- Skin Sensitization Potential [2]: Negative
- Skin Sensitization Potential ([2]; listed as neopentyl glycol dimethacrylate): non-skin-sensitizing
- SI (by LLNA) [2]: SI = 2.0

Compound: Cc1cc(C)c(C(=O)P(=O)(c2ccccc2)c2ccccc2)c(C)c1 [(B1-1), Diphenyl(2,4,6-trimethylbenzoyl)phosphine oxide]
- Skin Sensitization Potential [1]: 1B
- Skin Sensitization Potential ([1]; listed as IRGACURE TPO): sub-category 1B

Compound: Cc1cc(C)c(C(=O)P(=O)(C(=O)c2c(C)cc(C)cc2C)c2ccccc2)c(C)c1 [(B1-2), Phenylbis(2,4,6-trimethylbenzoyl)phosphine oxide]
- Skin Sensitization Potential [1]: Category 1
- Skin Sensitization Potential ([1]; listed as IRGACURE 819): category 1

Compound: CCCCCCC(=NOC(=O)c1ccccc1)C(=O)c1ccc(Sc2ccccc2)cc1 [(B1-3), 1-[4-(Phenylthio)phenyl]octane-1,2-dione 2-(o-benzoyloxime)]
- Skin Sensitization Potential [1]: Category 1
- Skin Sensitization Potential ([1]; listed as IRGACURE OXE01): category 1

Compound: CCn1c2ccc(C(=O)c3ccccc3C)cc2c2cc(C(C)=NOC(C)=O)ccc21 [(B1-4), 1-[9-Ethyl-6-(2-methylbenzoyl)-9H-carbazole-3-yl]ethanone o-acetyloxime]
- Skin Sensitization Potential [1]: 1B
- Skin Sensitization Potential ([1]; listed as IRGACURE OXE02): sub-category 1B

Compound: CSc1ccc(C(=O)C(C)(C)N2CCOCC2)cc1 [(B2-1), 2-Methyl-1-[4-(methylthio)phenyl]-2-morpholinopropane-1-one]
- Skin Sensitization Potential [1]: Negative
- Skin Sensitization Potential ([1]; listed as IRGACURE 907): negative

Compound: CCC(Cc1ccc(C)cc1)(C(=O)c1ccc(N2CCOCC2)cc1)N(C)C (stereo not drawn) [(B2-2), 2-(Dimethylamino)-2-[(4-methylphenyl)methyl]-1-(4-morpholinophenyl)butane-1-one]
- Skin Sensitization Potential [1]: Negative
- Skin Sensitization Potential ([1]; listed as IRGACURE 379): negative

Compound: O=C(c1ccccc1)C1(O)CCCCC1 [(B2-3), 1-Hydroxycyclohexyl phenyl ketone]
- Skin Sensitization Potential [1]: Negative
- Skin Sensitization Potential ([1]; listed as IRGACURE 184): negative

Compound: CC(C)(O)C(=O)c1ccc(OCCO)cc1 [(B2-4), 1-[4-(2-hydroxyethoxy)phenyl]-2-hydroxy-2-methylpropane-1-one]
- Skin Sensitization Potential [1]: Negative
- Skin Sensitization Potential ([1]; listed as IRGACURE 2959): negative

Compound: Tricyclodecane dimethanol dimethacrylate [(A-4)]
- Skin Sensitization Potential [2]: Negative
- Skin Sensitization Potential ([2]; listed as tricyclodecane dimethanol dimethacrylate): non-skin-sensitizing
- SI (by LLNA) [2]: SI = 1.3
